Experimental data reported in patent publication US6043212A, “Recombinant C140 receptor, its agonists and antagonists, and nucleic acids encoding the receptor” (COR Therapeutics, Inc., priority 1995, dated 2000).
Numbering of substitutions follows the chain as printed. Peptide text beside a SMILES is read from it.

Experiments:
[1] = target: T1, mutant C140 receptor 35Pro (serine-35 replaced with proline) (Mus musculus, UniProt P55086, S39P); experiment: 45Ca release by Xenopus oocytes expressing mutant C140 receptor 35Pro; type: cell-based; settings: 35Pro receptor
T1 construct: Site-directed mutagenesis was employed to construct mutant receptors in the pSG-5; expressed in transfected cells; host or cells: Xenopus laevis oocytes injected with capped cRNA
T1 sequence (P55086 32-399 S39P limits assumed): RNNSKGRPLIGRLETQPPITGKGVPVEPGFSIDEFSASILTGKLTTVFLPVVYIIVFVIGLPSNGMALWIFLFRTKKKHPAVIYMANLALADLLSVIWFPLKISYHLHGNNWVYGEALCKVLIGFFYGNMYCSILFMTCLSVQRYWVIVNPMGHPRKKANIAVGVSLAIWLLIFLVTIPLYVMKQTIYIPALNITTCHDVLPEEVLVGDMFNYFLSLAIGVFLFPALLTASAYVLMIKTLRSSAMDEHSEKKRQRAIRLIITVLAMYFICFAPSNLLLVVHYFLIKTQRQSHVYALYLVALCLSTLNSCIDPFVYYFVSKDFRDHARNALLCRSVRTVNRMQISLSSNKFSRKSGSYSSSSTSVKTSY
Excerpt: Both native and mutant C140 receptors were produced in oocytes and activated with a peptide mimicking the new amino-terminus", or by the proteolytic enzyme trypsin (which cleaves the extracellular region). Native receptors were produced by cloning the coding region of the receptor gene, using the polymerase chain reaction, into the expression vector pSG-5 (Green, S. et al., Nucleic Acid Res (1988) 16:369). The orientation and integrity of the cloned coding region was verified by determining the nucleotide sequence with the Sanger chain-termination method. Site-directed mutagenesis was employed to construct mutant receptors in the pSG-5. […]
Oocytes from Xenopus laevis were harvested and prepared using published techniques (Coleman, A., in Hames, B. D., and Higgins, S. J., eds, Transcription and Translation: A Practical Approach, IRL Press, pp. 271-302; Williams, J. A., et al. Proc Natl Acad Sci USA (1988) 85:4939-4943]. To remove follicular cells, oocytes were incubated for 1.5 h with shaking in calcium-free Barth's containing 2 mg/ml each of collagenase 1A and hyaluronidase 1S. The oocytes were then washed five times in regular Barth's and incubated at 18° C. in Barth's medium containing 100 U/ml penicillin, 100 μg/ml streptomycin, and 2.5 mM sodium pyruvate. […] The harvested medium was analyzed by scintillation counting. […]

[2] = target: T2, wild-type mouse C140 receptor (Mus musculus, UniProt P55086); experiment: 45Ca release by Xenopus oocytes expressing wild-type mouse C140 receptor; type: cell-based
T2 construct: Native receptors were produced by cloning the coding region of the receptor gene; expressed in transfected cells; host or cells: Xenopus laevis oocytes injected with capped cRNA from pSG-5 C140
T2 sequence (P55086 32-399 limits assumed): T1 sequence (P55086 32-399 S39P limits assumed) with P8S
Description: Agonist-induced increases in ^45 Ca release by oocytes expressing cRNA encoding C140 receptor or other recombinant cells producing C140 receptor are assessed by published techniques (Williams, J. A., et al., Proc Natl Acad Sci USA (1988) 85:4939-4943). Briefly, intracellular calcium pools are labeled by incubating groups of 30 oocytes in 300 μl calcium-free modified Barth's solution (MBSH) containing 50 μCi ^45 CaCl2 (10-40 mCi/mg Ca; Amersham) for 4 hours at RT. The labeled oocytes or cells are washed, then incubated in MBSH II without antibiotics for 90 minutes. Groups of 5 oocytes are selected and placed in individual wells in a 24-well tissue culture plate (Falcon 3047) containing 0.5 ml/well MBSH II without antibiotics. This medium is removed and replaced with fresh medium every 10 minutes; the harvested medium is analyzed by scintillation counting to determine ^45 Ca released by the oocytes during each 10-minute incubation. The 10-minute incubations are continued until a stable baseline of ^45 Ca release per unit time is achieved. Two additional 10-minute collections are obtained, then test medium including agonist is added and agonist-induced ^45 Ca release determined.
Oocytes from Xenopus laevis were harvested and prepared using published techniques (Coleman, A., in Hames, B. D., and Higgins, S. J., eds, Transcription and Translation: A Practical Approach, IRL Press, pp. 271-302; Williams, J. A., et al. Proc Natl Acad Sci USA (1988) 85:4939-4943]. To remove follicular cells, oocytes were incubated for 1.5 h with shaking in calcium-free Barth's containing 2 mg/ml each of collagenase 1A and hyaluronidase 1S. The oocytes were then washed five times in regular Barth's and incubated at 18° C. in Barth's medium containing 100 U/ml penicillin, 100 μg/ml streptomycin, and 2.5 mM sodium pyruvate. Stage V oocytes were selected and injected with 30 nl of cRNA (0.33 μg/μl water) or water alone, and then incubated with 0.25 ml of medium in groups of four/well in a 96-well culture plate. After 36 hours the oocytes were incubated with ^45 Ca (250 μCi/ml). After 12 h incubation the oocytes were washed and 0.2 ml of medium added and replaced every five minutes. The harvested medium was analyzed by scintillation counting. After five replacements to determine the baseline release of ^45 Ca, test medium with the agonist, e.g. SLIGRL (SEQ ID NO: 23), was added and the evoked ^45 Ca-release determined.
Oocytes were injected with capped cRNA (ca 10 ng) encoding wild-type mouse C140 receptor (WT) or either of the three mutant receptors 35Pro, 35Arg and 35His. After 36 hours, cRNA-injected and control water-injected, oocytes were loaded with ^45 Ca, and 12 hours thereafter peptide or trypsin-induced ^45 Ca release were determined as described above. The peptide SLIGRL (SEQ ID NO: 23) was added at 100 μM, and trypsin at 300 pM. The stimulation with the peptide was done on the same group of oocytes after the stimulation with trypsin. The data shown in Table 1 represent the mean of three replicate determinations, and denotes the increase compared to oocytes injected with water.
Various peptides were tested at 100 μM in the assay above using wild-type mouse C140 receptor, expressed in oocytes.

| Compound | Fold increase in 45Ca ([1]; peptide at 100 μM, same oocytes after trypsin stimulation) [fold] | Fold increase in 45Ca ([2]; Table 2, peptides at 100 μM, wild-type mouse C140 receptor in oocytes) [fold] | Fold increase in 45Ca ([2]; WT receptor, peptide at 100 μM, same oocytes after trypsin stimulation, compared to water-injected oocytes) [fold] | Fold increase in 45Ca ([1]; trypsin at 300 pM, increase compared to water-injected oocytes) [fold] | Fold increase in 45Ca ([2]; WT receptor, trypsin at 300 pM, increase compared to water-injected oocytes, mean of three) [fold] |
| --- | --- | --- | --- | --- | --- |
| CC[C@H](C)[C@H](NC(=O)[C@H](CC(C)C)NC(=O)[C@@H](N)CO)C(=O)NCC(=O)N[C@@H](CCCNC(=N)N)C(=O)N[C@@H](CC(C)C)C(=O)O [SLIGRL] (H-SLIGRL-OH) | 23 | 15 | 11 |  |  |
| trypsin |  |  |  | 0 | 6.6 |
